IC90 data for 24 molecules are collected here from patent US20230203043A1, “NOVEL IMIDAZOPYRAZINE DERIVATIVES” (Hoffmann-La Roche Inc., priority 2020, published 2023).

Counter-ions that a name gives are not always drawn. Like-named read-outs stand apart in the source and are kept apart here.

This experiment concerns Acinetobacter baumannii ATCC17961. The experiment can be described thus: Antimicrobial susceptibility testing: 90% growth inhibitory concentration (IC90) determination in Iso-Sensitest broth, OD600 growth. The format is cell-based. In a few lines:
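Compounds were twofold serially diluted in DMSO across 10 points (e.g. 50 to 0.097 μM final) and inoculated at ~5×10^(5) CFU/ml. Plates incubated at 35±2° C, with OD600 read every 20 minutes over 16 h. IC90 was derived from growth inhibition during logarithmic growth.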

Where [1] appears, read: Acinetobacter baumannii, ATCC17961, 16 h, read-out: A. baumannii ATCC 17961 IC90 (uM), strain ATCC 17961, OD600 growth over 16 h.
The mark [2] stands for this setting: Acinetobacter baumannii, ATCC17961, 16 h, strain ATCC 17961, OD600 growth over 16 h, read-out: A. baumannii ATCC 17961 IC90.

As to `CCc1cc(Nc2nccn3c(-c4cn(C)nc4C(F)(F)F)cnc23)ccc1C(=O)NCCNC(=O)[C@@H]1C[C@@H](O)CN1` [Example 445, (2S,4R)-N-[2-[[2-ethyl-4-[[3-[1-methyl-3-(trifluoromethyl)pyrazol-4-yl]imidazo[1,2-a]pyrazin-8-yl]amino]benzoyl]amino]ethyl]-4-hydroxypyrrolidine-2-carboxamide formate], the IC90 (usually the concentration needed for an effect of 90%) under setting [1] is 1.48 µM.

For the molecule `CCc1cc(Nc2nccn3c(-c4cn(CC#N)nc4C(F)(F)F)cnc23)ccc1C(=O)NCC(=O)NCC1CCCN1` (stereo not drawn) [Example 522, 4-[[3-[1-(cyanomethyl)-3-(trifluoromethyl)pyrazol-4-yl]imidazo[1,2-a]pyrazin-8-yl]amino]-2-ethyl-N-[2-oxo-2-(pyrrolidin-2-ylmethylamino)ethyl] benzamide formate], the IC90 under setting [2] came out at 0.402 µM.

On to `Cc1cc(Nc2nccn3c(-c4cn(CC(F)F)nc4C(F)(F)F)cnc23)cc(F)c1C(=O)N[C@H](C)CNC(=O)CN` [Example 673, (R)-N-(1-(2-aminoacetamido)propan-2-yl)-4-((3-(1-(2,2-difluoroethyl)-3-(trifluoromethyl)-1H-pyrazol-4-yl)imidazo[1,2-a]pyrazin-8-yl)amino)-2-fluoro-6-methylbenzamide], for which, under setting [2], the IC90 stood at 0.314 µM.

`CCc1cc(Nc2nccn3c(-c4cn(CCF)nc4C(F)F)cnc23)ccc1C(=O)N1CCN(C(=O)C2CCNCC2)CC1` [Example 770, (4-(4-((3-(3-(difluoromethyl)-1-(2-fluoroethyl)-1H-pyrazol-4-yl)imidazo[1,2-a]pyrazin-8-yl)amino)-2-ethylbenzoyl)piperazin-1-yl)(piperidin-4-yl)methanone formate]: the IC90 under setting [1] is 0.929 µM.

Take `CCc1cc(Nc2nccn3c(-c4cn(CCF)nc4C(F)(F)F)cnc23)ccc1C(=O)NCCOCCN1CCOCC1` [Example 737, 2-ethyl-4-((3-(1-(2-fluoroethyl)-3-(trifluoromethyl)-1H-pyrazol-4-yl)imidazo[1,2-a]pyrazin-8-yl)amino)-N-(2-(2-morpholinoethoxy)ethyl)benzamide formate]: under setting [1], the 90% effect concentration (IC90) was 0.495 µM.

As for `CCc1cc(Nc2nccn3c(-c4cn(CC(F)F)nc4C(F)(F)F)cnc23)ccc1C(=O)NCC1CNC1` [Example 557, N-(azetidin-3-ylmethyl)-4-((3-(1-(2,2-difluoroethyl)-3-(trifluoromethyl)-1H-pyrazol-4-yl)imidazo[1,2-a]pyrazin-8-yl)amino)-2-ethylbenzamide formate], the IC90 under setting [1] came out at 0.144 µM.

Turning to `N[C@H]1CCN(C(=O)c2ccc(Nc3nccn4c(-c5c[nH]nc5C(F)(F)F)cnc34)cc2Cl)C1` [Example 320, [(3S)-3-aminopyrrolidin-1-yl]-[2-chloro-4-[[3-[3-(trifluoromethyl)-1H-pyrazol-4-yl]imidazo[1,2-a]pyrazin-8-yl]amino]phenyl]methanone], under setting [2], the IC90 turned out to be 0.705 µM.

As for `Cc1cc(Nc2nccn3c(-c4cn(CC#N)nc4C(F)(F)F)cnc23)cc(F)c1C(=O)N1CCN(C(=O)[C@H]2CC[C@H](O)N2)CC1` [Example 715, 2-(4-(8-((3-fluoro-4-(4-((2R,5S)-5-hydroxypyrrolidine-2-carbonyl)piperazine-1-carbonyl)-5-methylphenyl)amino)imidazo[1,2-a]pyrazin-3-yl)-3-(trifluoromethyl)-1H-pyrazol-1-yl) acetonitrile], the IC90 under setting [2] stood at 0.422 µM.

On to `NCCNC(=O)c1ccc(Nc2nccn3c(-c4c[nH]nc4C(F)(F)F)cnc23)cc1Cl` [Example 363, N-(2-aminoethyl)-2-chloro-4-[[3-[3-(trifluoromethyl)-1H-pyrazol-4-yl]imidazo[1,2-a]pyrazin-8-yl]amino]benzamide], for which, under setting [2], the IC90 was determined as 0.738 µM.

As to `O=C(c1ccc(Nc2nccn3c(-c4c[nH]nc4C(F)(F)F)cnc23)cc1Cl)N1CCN(C(=O)[C@@]2(O)CCCNC2)CC1` [Example 248, [2-chloro-4-[[3-[3-(trifluoromethyl)-1H-pyrazol-4-yl]imidazo[1,2-a]pyrazin-8-yl]amino]phenyl]-[4-[(3R)-3-hydroxypiperidine-3-carbonyl]piperazin-1-yl]methanone], under setting [2], the IC90 was determined as 0.311 µM.

As for `N#CCn1cc(-c2cnc3c(Nc4ccc(C(=O)NCCOCCN)c(Cl)c4)nccn23)c(C(F)(F)F)n1` [Example 257, N-[2-(2-aminoethoxy)ethyl]-2-chloro-4-[[3-[1-(cyanomethyl)-3-(trifluoromethyl)pyrazol-4-yl]imidazo[1,2-a]pyrazin-8-yl]amino]benzamide], the IC90 under setting [2] is 0.37 µM.

In the case of `CCc1cc(Nc2nccn3c(-c4cn(CC(F)F)nc4C(F)(F)F)cnc23)ccc1C(=O)N1CCN(C(=O)C2CCNCC2)CC1` [Example 70, [4-[[3-[1-(2,2-difluoroethyl)-3-(trifluoromethyl)pyrazol-4-yl]imidazo[1,2-a]pyrazin-8-yl]amino]-2-ethylphenyl]-[4-(piperidine-4-carbonyl)piperazin-1-yl]methanone], the IC90 under setting [2] worked out at 0.489 µM.

In the case of `CCc1cc(Nc2nccn3c(-c4cn(CCF)nc4C(F)F)cnc23)ccc1C(=O)N1CCN(C(=O)C2(O)CCNCC2)CC1` [Example 791, (4-(4-((3-(3-(difluoromethyl)-1-(2-fluoroethyl)-1H-pyrazol-4-yl)imidazo[1,2-a]pyrazin-8-yl)amino)-2-ethylbenzoyl)piperazin-1-yl)(4-hydroxypiperidin-4-yl)methanone], the IC90 under setting [2] stood at 1.85 µM.

For `C#CCNC(=O)c1c(C)cc(Nc2nccn3c(-c4cn(CC#C)nc4C(F)(F)F)cnc23)cc1F` [Example 40, 2-fluoro-6-methyl-N-prop-2-ynyl-4-[[3-[1-prop-2-ynyl-3-(trifluoromethyl)pyrazol-4-yl]imidazo[1,2-a]pyrazin-8-yl]amino] benzamide], the 90% effect concentration (IC90) (strain ATCC 17961, OD600 growth over 16 h, read-out: A. baumannii ATCC 17961 IC90) was 0.196 µM.

With `C[C@@H]1CN(C(=O)c2ccc(Nc3nccn4c(-c5c[nH]nc5C(F)(F)F)cnc34)cc2Cl)CCN1` [Example 323, [2-chloro-4-[[3-[3-(trifluoromethyl)-1H-pyrazol-4-yl]imidazo[1,2-a]pyrazin-8-yl]amino]phenyl]-[(3R)-3-methylpiperazin-1-yl]methanone], the 90% effect concentration (IC90) under setting [2] came to 1.05 µM.

Turning to `CCc1cc(Nc2nccn3c(-c4cn(CCF)nc4C(F)F)cnc23)ccc1C(=O)N1CCN(C(=O)[C@H](C)N)CC1` [Example 779, (S)-2-amino-1-(4-(4-((3-(3-(difluoromethyl)-1-(2-fluoroethyl)-1H-pyrazol-4-yl)imidazo[1,2-a]pyrazin-8-yl)amino)-2-ethylbenzoyl)piperazin-1-yl)propan-1-one], the IC90 under setting [2] was determined as 1.03 µM.

As for `Cc1cc(Nc2nccn3c(-c4cn(CC#N)nc4C(F)(F)F)cnc23)ccc1C(=O)N[C@H](C)C(=O)N[C@H]1CCNC1` [Example 738, 4-[[3-[1-(cyanomethyl)-3-(trifluoromethyl)pyrazol-4-yl]imidazo[1,2-a]pyrazin-8-yl]amino]-2-methyl-N-[(1R)-1-methyl-2-oxo-2-[[(3S)-pyrrolidin-3-yl]amino]ethyl]benzamide formate], under setting [1], the IC90 worked out at 0.526 µM.

Consider `CCc1cc(Nc2nccn3c(-c4cn(C5CCC5)nc4C(F)(F)F)cnc23)ccc1C(=O)NCCOCCN` [Example 273, N-[2-(2-aminoethoxy)ethyl]-4-[[3-[1-cyclobutyl-3-(trifluoromethyl)pyrazol-4-yl]imidazo[1,2-a]pyrazin-8-yl]amino]-2-ethylbenzamide formate], for which, under setting [1], the IC90 was 0.087 µM.

In the case of `NC1CC(NC(=O)CNC(=O)c2ccc(Nc3nccn4c(-c5c[nH]nc5C(F)(F)F)cnc34)cc2Cl)C1` (stereo not drawn) [Example 138, N-[2-[(3-aminocyclobutyl)amino]-2-oxoethyl]-2-chloro-4-[[3-[3-(trifluoromethyl)-1H-pyrazol-4-yl]imidazo[1,2-a]pyrazin-8-yl]amino]benzamide], under setting [2], the IC90 amounted to 2.01 µM.

`CCc1cc(Nc2nccn3c(-c4cn(CCF)nc4C(F)F)cnc23)ccc1C(=O)N1CCN(C(=O)[C@@H](C)N)CC1` [Example 796, (R)-2-amino-1-(4-(4-((3-(3-(difluoromethyl)-1-(2-fluoroethyl)-1H-pyrazol-4-yl)imidazo[1,2-a]pyrazin-8-yl)amino)-2-ethylbenzoyl)piperazin-1-yl)propan-1-one]: the IC90 under setting [2] came to 2.25 µM.

In the case of `CCc1cc(Nc2nccn3c(-c4cn(CC(F)F)nc4C(F)(F)F)cnc23)ccc1C(=O)NCC(=O)N1CC2(CNC2)C1` [Example 526, N-[2-(2,6-diazaspiro[3.3]heptan-2-yl)-2-oxo-ethyl]-4-[[3-[1-(2,2-difluoroethyl)-3-(trifluoromethyl)pyrazol-4-yl]imidazo[1,2-a]pyrazin-8-yl]amino]-2-ethyl-benzamide formate], the 90% effect concentration (IC90) under setting [1] amounted to 0.306 µM.

In the case of `CCc1cc(Nc2nccn3c(-c4cn(CC#N)nc4C(F)F)cnc23)ccc1C(=O)N1CCN(C(=O)[C@H](N)C(C)C)CC1` [Example 797, 2-(4-(8-((4-(4-(D-valyl)piperazine-1-carbonyl)-3-ethylphenyl)amino)imidazo[1,2-a]pyrazin-3-yl)-3-(difluoromethyl)-1H-pyrazol-1-yl)acetonitrile], the concentration for an effect of 90% (IC90) under setting [2] worked out at 2.36 µM.

Turning to `N[C@H]1CCN(C(=O)CNC(=O)c2ccc(Nc3nccn4c(-c5c[nH]nc5C(F)(F)F)cnc34)cc2Cl)C1` [Example 164, N-[2-[(3S)-3-aminopyrrolidin-1-yl]-2-oxoethyl]-2-chloro-4-[[3-[3-(trifluoromethyl)-1H-pyrazol-4-yl]imidazo[1,2-a]pyrazin-8-yl]amino]benzamide], the IC90 under setting [2] was determined as 1.93 µM.

Take `N[C@@H]1CC[C@@H](C(=O)N2CCN(C(=O)c3ccc(Nc4nccn5c(-c6cn(CC(F)F)nc6C(F)(F)F)cnc45)cc3Cl)CC2)C1` [Example 574, (4-((1R,3R)-3-aminocyclopentane-1-carbonyl)piperazin-1-yl)(2-chloro-4-((3-(1-(2,2-difluoroethyl)-3-(trifluoromethyl)-1H-pyrazol-4-yl)imidazo[1,2-a]pyrazin-8-yl)amino)phenyl)methanone formate]: the IC90 under setting [1] worked out at 0.242 µM.
